{"source": "patent US6391545B1", "about": "(priority 1992, dated 2002)", "type_in_all_cases": "cell-based", "key": {"[1]": {"test_system": "E. coli strain MCH164pMAL-marB", "test": "MIC complementation test, MCH164pMAL-marB", "details": "Escherichia coli, MCH164PMALMARB"}, "[2]": {"test_system": "E. coli strain AG102 (Mar mutant)", "test": "MIC complementation test, AG102 (Mar mutant)", "details": "Escherichia coli"}, "[3]": {"test_system": "E. coli strain MCH164pMAK-Region II", "test": "MIC complementation test, MCH164pMAK-Region II", "details": "Escherichia coli"}, "[4]": {"test_system": "E. coli strain MCH164pMAL-marA", "test": "MIC complementation test, MCH164pMAL-marA", "details": "Escherichia coli, MCH164PMALMARA"}, "[5]": {"test_system": "E. coli strain MCH164pMAL-marAB", "test": "MIC complementation test, MCH164pMAL-marAB", "details": "Escherichia coli, MCH164PMALMARAB"}, "[6]": {"test_system": "E. coli strain MCH164PHH193-SEQ ID NO:1", "test": "MIC complementation test, MCH164PHH193-SEQ ID NO:1", "details": "Escherichia coli"}}, "data": [{"smiles": "CN(C)[C@@H]1C(O)=C(C(N)=O)C(=O)[C@@]2(O)C(O)=C3C(=O)c4c(O)cccc4[C@@](C)(O)[C@H]3C[C@@H]12", "note": "[Tet, tetracycline]", "values": [{"measurement": "MIC", "setting": "[1]", "value": 2.1, "unit": "µg/mL"}, {"measurement": "MIC", "setting": "[2]", "value": 13.8, "unit": "µg/mL"}, {"measurement": "MIC", "setting": "[3]", "value": 4.7, "unit": "µg/mL"}, {"measurement": "MIC", "setting": "[4]", "value": 3.4, "unit": "µg/mL"}, {"measurement": "MIC", "setting": "[5]", "value": 4.7, "unit": "µg/mL"}, {"measurement": "MIC", "setting": "[6]", "value": 13.1, "unit": "µg/mL"}]}, {"smiles": "O=C(N[C@H](CO)[C@H](O)c1ccc([N+](=O)[O-])cc1)C(Cl)Cl", "note": "[clm, chloramphenicol]", "values": [{"measurement": "MIC", "setting": "[1]", "value": 1, "unit": "µg/mL"}, {"measurement": "MIC", "setting": "[2]", "value": "> 25", "unit": "µg/mL"}, {"measurement": "MIC", "setting": "[4]", "value": 4.9, "unit": "µg/mL"}, {"measurement": "MIC", "setting": "[5]", "value": 7.2, "unit": "µg/mL"}]}, {"smiles": "CCn1cc(C(=O)O)c(=O)c2ccc(C)nc21", "note": "[nal, nalidixic acid]", "values": [{"measurement": "MIC", "setting": "[1]", "value": 2.1, "unit": "µg/mL"}, {"measurement": "MIC", "setting": "[2]", "value": 14.5, "unit": "µg/mL"}, {"measurement": "MIC", "setting": "[3]", "value": 6.8, "unit": "µg/mL"}, {"measurement": "MIC", "setting": "[4]", "value": 5.3, "unit": "µg/mL"}, {"measurement": "MIC", "setting": "[5]", "value": 6.3, "unit": "µg/mL"}, {"measurement": "MIC", "setting": "[6]", "value": 13.6, "unit": "µg/mL"}]}]}
